Test results as given in the CheMixHub viscosity set.

Assay: xn = mol fraction of the nth substance listed

CNC(C)=O + CCCO
303.15 K, 101 kPa
Conditions | viscosity [mPa·s]
x1 = 0.1069 | 1.816
x1 = 0.1939 | 1.891
x1 = 0.3142 | 2.033
x1 = 0.3918 | 2.142
x1 = 0.4791 | 2.289
x1 = 0.5976 | 2.537
x1 = 0.6966 | 2.785
x1 = 0.7922 | 3.066
x1 = 0.9015 | 3.443

CC(C)CCO + CCO
viscosity [mPa·s]
Conditions | x1 = 0.0558 | x1 = 0.1156 | x1 = 0.1843 | x1 = 0.2587 | x1 = 0.3588 | x1 = 0.4457 | x1 = 0.5523 | x1 = 0.6771 | x1 = 0.8255 | x2 = 0.5
298.15 K, 100 kPa | 1.291 | 1.591 | 1.919 | 2.235 | 2.576 | 2.831 | 3.086 | 3.312 | 3.463 | –
303.15 K, 100 kPa | 1.175 | 1.471 | 1.806 | 2.029 | 2.353 | 2.549 | 2.756 | 2.917 | 2.945 | –
308.15 K, 100 kPa | 1.236 | 1.672 | 2.049 | 2.279 | 2.559 | 2.699 | 2.763 | 2.814 | 2.815 | –
308.15 K, 101 kPa | – | – | – | – | – | – | – | – | – | 1.747
313.15 K, 101 kPa | – | – | – | – | – | – | – | – | – | 1.519
318.15 K, 101 kPa | – | – | – | – | – | – | – | – | – | 1.372

CCC(=O)O.OCCNCCO + CCO
303.15 K, 101 kPa
Conditions | viscosity [mPa·s]
x1 = 0.5084 | 116.5
x1 = 0.6965 | 177.5
x1 = 0.804 | 226.5

CCOCCO + CCO
298.15 K, 101 kPa
Conditions | viscosity [mPa·s]
x1 = 0.0538 | 1.147
x1 = 0.1133 | 1.207
x1 = 0.1798 | 1.272
x1 = 0.2542 | 1.341
x1 = 0.3383 | 1.416
x1 = 0.4341 | 1.497
x1 = 0.544 | 1.581
x1 = 0.6716 | 1.669
x1 = 0.8215 | 1.761

CNC(C)=O + CCO
303.15 K, 101 kPa
Conditions | viscosity [mPa·s]
x1 = 0.1049 | 1.108
x1 = 0.2021 | 1.237
x1 = 0.3699 | 1.52
x1 = 0.4024 | 1.584
x1 = 0.5109 | 1.833
x1 = 0.6023 | 2.084
x1 = 0.6979 | 2.402
x1 = 0.7994 | 2.792
x1 = 0.895 | 3.236

Oc1ccc(Cl)cc1 + CCO
Conditions | viscosity [mPa·s]
298.15 K, 101 kPa, x1 = 0.5 | 1.454

Cc1cccc(Cl)c1 + CCOC(=O)c1ccccc1
viscosity [mPa·s], 101 kPa
Conditions | 303.15 K | 313.15 K
x2 = 0.0789 | 0.775 | 0.672
x2 = 0.1831 | 0.822 | 0.711
x2 = 0.2348 | 0.851 | 0.734
x2 = 0.3353 | 0.913 | 0.782
x2 = 0.4121 | 0.973 | 0.827
x2 = 0.4871 | 1.043 | 0.881
x2 = 0.5629 | 1.122 | 0.938
x2 = 0.6364 | 1.212 | 1.006
x2 = 0.711 | 1.312 | 1.084
x2 = 0.7831 | 1.419 | 1.166
x2 = 0.8563 | 1.54 | 1.257
x2 = 0.9045 | 1.625 | 1.321
x2 = 0.9524 | 1.714 | 1.388
